Patent US20230047208A1, “RNA Splicing Modulation” (The General Hospital Corporation, priority 2020, published 2023)

What was measured:
CFTR channel = test: CFTR functional assessment, short circuit current (Ussing chamber) in CFBE cells stably expressing c.2988G>A; format: cell-based, human; settings: CFBE c.2988G>A, Compound (I) treated cells, 10 μM ivacaftor acute, apical side
Description: WT CFTR-EMG-i14-i18, CFTR-EMG-i14-i18 harboring c.2988G>A, Flp-In-CFBE, and Flp-In-293 cells stably expressing WT-EMG and c.2988G>A EMG were generated. Both Flpin-293 and Flp-In-CFBE cells lack endogenous CFTR expression (CFBE41o-) and contain a single Flp recombinase target site. Co-transfection of EMG plasmid with pOG44 (a plasmid encoding Flp recombinase) allowed for genomic integration at the FRT site. Hygromycin was used for stable cell selection.
Assessment of CFTR channel function and response to Compound (I) was performed in CFBEs stably expressing c.2988G>A. Briefly, CFBE stable cell lines were plated on snapwell filters. When transepithelial resistance reached ˜200Ω (˜ 5-7 days) as measured using Voltammeter (Physiologic Instruments), cells were treated with Compound (I) at varying doses (0.3 μM to 10 μM) for next 3 days. Filters were mounted in Ussing chambers (Physiological Instruments). A high chloride solution was added to the basolateral chamber and a low chloride solution was added to the apical chamber. After equilibration of currents, 10 μM forskolin (Selleckchem) was added to the basolateral side to activate CFTR channels via cAMP signaling. Currents were allowed to plateau, followed by acute addition of 10 μM ivacaftor at apical side for CFTR potentiation (Selleckchem). Inhibition of CFTR was performed using 10 μM Inh-172 (Selleckchem) added to the apical chamber.
The ability of Compound (I) to rescue chloride channel function was also assessed. CF bronchial epithelial (CFBE) cell lines was generated to stably express the splicing mutation c.2988G>A. Cells were grown in monolayers on filters and treated with increasing doses of Compound (I) (0.3 μM-10 μM) or DMSO for 3 days. Chloride channel function was assessed by measuring short circuit current (Isc) on treated CFBE cells. Forskolin was added to initiate CFTR channel activity via cAMP-mediated signaling, with further channel activation by Ivacaftor and inhibition with Inh-172, a CFTR-specific inhibitor (FIG. 9C, representative Isc tracing). CFTR-specific change in current (ΔIsc±SD) allows for measurement of chloride channel function (FIG. 9C). […] Significant recovery of CFTR function (˜3 fold) was observed following treatment with Compound (I) at 1, 3, 6, and 10 μM for 3 days, with a maximal increase in CFTR function achieved using 3 μM of Compound (I) (ΔIsc=37.168±4.32 μA/cm^2, FIG. 9C).

ELP1 exon 20 [1] = settings: cited from earlier work
ELP1 exon 20 [2] = settings: cited from earlier work; remark: listed apart in the source

Compound | improvement in CFTR function on acute addition of Ivacaftor (CFTR channel) | doses needed to achieve inclusion of Exon 20 in vivo (ELP1 exon 20 [1]) | Percent Spliced In (PSI) change for ELP1 exon 20 splicing (ELP1 exon 20 [2]; RNA sequencing after kinetin treatment) | additional exon-usage differences in response to kinetin (ELP1 exon 20 [2]; RNA sequencing) | usage differences that induced skipping of the middle exon (ELP1 exon 20 [2]; RNA sequencing) | usage differences that promoted inclusion of the middle exon (ELP1 exon 20 [2]; RNA sequencing)
CC(C)(C)c1cc(C(C)(C)C)c(NC(=O)c2c[nH]c3ccccc3c2=O)cc1O [Ivacaftor, reference compound] | ~2 fold | – | – | – | – | –
c1coc(CNc2ncnc3nc[nH]c23)c1 [kinetin, 6-furfurylaminopurine] | – | extremely high doses are necessary | 0.57 | 42 | 31 | 11
